# Experimental data published in PMC5712356, “A New Ala-122-Asn Amino Acid Change Confers Decreased Fitness to ALS-Resistant Echinochloa crus-galli” (Frontiers in Plant Science, 2017).
# Test system: T1, ALS (acetolactate synthase; acetohydroxyacid synthase, AHAS; EC 2.2.1.6)
# T1 construct: not purified; polyploid species, ALS gene copies not separated
# Experiment: acetoin (Westerfeld) colorimetric ALS assay, […] nm, log-logistic fit
# Format: biochemical, Echinochloa crus-galli
# Settings: sub-population S (no known ALS mutation); Na-pyruvate, MgCl2, TPP, FAD, pH 7.0, 37 °C, 90 min; partially purified leaf extract; read-out: I50
structure (smiles),measurement,value
COCc1cnc(C2=NC(C)(C(C)C)C(=O)N2)c(C(=O)O)c1 (centres unmarked) [Imazamox],IC50,1740 nM
COc1cc(OC)nc(NC(=O)NS(=O)(=O)c2ncccc2C(=O)N(C)C)n1 [Nicosulfuron],IC50,19 nM
